Test results taken from patent US4117121A, “Method of increasing bile flow and decreasing lipid levels” (Hoffmann-La Roche Inc., priority 1977, dated 1978).

How the values were obtained:
bile flow [1] = assay: Comparative effect on bile flow (Example 2); format: in vivo, female rats; settings: 100 mg intragastrically, vs average bile of two hours preceding treatment
Protocol: Female rats, weighing approximately 250 g, were fasted overnight prior to surgery; water was allowed ad libitum. The surgical procedures involving cannulation of the upper part of the common bile duct were carried out under Penthrane anesthesia. A catheter placed in the avascular part of the stomach was used for intragastric administration of emulsion; another catheter was placed in the duodenum. After surgery the rats were kept in restraining cages. Intraduodenal infusion of bile (collected previously from donors) was then started at the rate of 0.9 ml/hr. The infusion pressure was kept constant by means of a pump. Hydration was maintained by allowing the animals to drink saline ad libitum.
All rats were allowed~20 hours to recover from surgery. During this post-surgical period bile was collected in pooled samples of 16-18 hours. Having achieved steady hourly flow, the two samples obtained prior to the actual experiment were collected individually and considered as a control standard for each rat.
Bile samples were collected hourly, over a 24-hour period. The volume was measured to the nearest 0.1 ml.
The values in Table III were expressed for the purpose of the analysis, as a percent change from average bile collected in the two hours immediately preceding treatment.

triglyceride absorption = assay: Inhibition of absorption of dietary triglyceride after oral corn oil load; format: in vivo, rats
Protocol: The ability of compound A to inhibit the absorption of dietary triglyceride in rats is determined by analyzing the rise in serum triglycerides after an oral load of corn oil. To 24 hours fasted rats (6 per group), compound A was administered orally at 1.1 mmoles/kg 15 minutes before a single oral dose of corn oil ([…]). Blood samples (0.4 ml) were collected from the rat tail 0, 2, 4, 6, 8 and 24 hours after compound administration. Each rat is its own control. Plasma samples were analyzed for triglyceride content by the procedure set forth in Kessler and H. Lederer, Tehnicon Symposium 1965 Automation in Analytical Chemistry Ed. L. Skeggs, published Mediad Inc. N.Y. (1966)pp341. The data in Table V is expressed as mg% change in plasma triglyceride levels compared to zero time control values at each time interval. This change in plasma triglycerides was determined by calculating the difference between the triglyceride level at each time point compared to zero time control level.
The procedure of Example 4 was followed except groups of 4 were utilized. Compound B was administered.

bile flow [2] = assay: Stimulation of bile flow (Example 1); format: in vivo, female albino rats (Charles River); settings: 100 mg orally, over the Na-TC control
Description: (§1) In these studies female albino rats (Charles River), weighing 300 ± 10 g were kept on a Purina chow diet ad libitum until the time of operation. […] This preparation enabled the production of lymph at a constant rate, the infusion of a bile salt, and the simultaneous collection of bile.
(§2) All animals received, after operation, a continuous duo denal infusion of sodium taurocholate (Na-TC) in 0.85% NaCl. One day after operation, the rats were given, by stomach intubation, an emulsion containing about 4% triolein, 20 μC of 4-^14 C-cholesterol (Specific Activity 61.7 mC/mM, 159 μC/mg), 2 mg of cholesterol, in addition to protein, carbohydrate, and saline. Both the Na-TC and the cholesterol carrier employed gave a single spot on either thin layer or glass fiber paper chromatograph so no further purification was attempted. The commercial glyceryl trioleate contained a large percentage of di- and monoolein. Triolein was, therefore, purified by passage through a silicic acid column; the final product gave a single spot on either glass fiber paper or thin layer chromatography.
(§3) To 4 ml of this emulsion was added 100 mg of either Na-TC (control group) or compounds A through D. This mixture was given orally to the animals.
(§4) The sampling of thoracic duct lymph and of bile was divided into two collecting periods, 0-8 and 9-24 h after emulsion administration.
In this table the results are expressed as the % increase in bile flow over the control.

[3] = test system: intestinal absorbtion of CHOLESTEROL; assay: Intestinal absorption of cholesterol: appearance of 4-14C-cholesterol in thoracic duct lymph; format: in vivo, female albino rats (Charles River); settings: 100 mg orally, vs Na-TC control, 14C-cholesterol in lymph; for % decrease of cholesterol, 0-8 hours: 0-8 hours after emulsion; for % decrease of cholesterol, 9-24 hours: 9-24 hours after emulsion
Description: as §1, §2, §3, §4
Lymph specimens were lyophilized and the lipids in the residue were extracted with ethanol-isopropyl ether, 2:1 parts by volume, by procedure described in Gallo-Torres, et al; Biophys. Acta, 176 605-615 (1969). An aliquot of the lipid extract was placed on a small piece of glass fiber paper and counted. Another aliquot was used for the separation of cholesterol and its esters by glass fiber paper chromatography.
The effect of compounds A through D derivatives on the appearance of total ^14 C-cholesterol in the thoracic duct lymph of rats is summarized in Table I. Of the dose administered to the control animals, 5 × 10^5 dpm were recovered in the first 8 h and 3.4 × 10^6 dpm in the period of 9-24 h following administration of the emulsion. […] The tolerance of cholesterol in Table I is the % decrease in the 4-^14 C-cholesterol over the control appearing in the lymph during the specified period.

rat pancreatic lipase = biological target: T1, rat pancreatic lipase (Rattus norvegicus, UniProt P27657); assay: Inhibition of rat pancreatic lipase in vitro; format: biochemical; settings: 14C-triolein emulsion, pH 8.6, 20 min at 37° C.
T1 sequence (P27657 17-465): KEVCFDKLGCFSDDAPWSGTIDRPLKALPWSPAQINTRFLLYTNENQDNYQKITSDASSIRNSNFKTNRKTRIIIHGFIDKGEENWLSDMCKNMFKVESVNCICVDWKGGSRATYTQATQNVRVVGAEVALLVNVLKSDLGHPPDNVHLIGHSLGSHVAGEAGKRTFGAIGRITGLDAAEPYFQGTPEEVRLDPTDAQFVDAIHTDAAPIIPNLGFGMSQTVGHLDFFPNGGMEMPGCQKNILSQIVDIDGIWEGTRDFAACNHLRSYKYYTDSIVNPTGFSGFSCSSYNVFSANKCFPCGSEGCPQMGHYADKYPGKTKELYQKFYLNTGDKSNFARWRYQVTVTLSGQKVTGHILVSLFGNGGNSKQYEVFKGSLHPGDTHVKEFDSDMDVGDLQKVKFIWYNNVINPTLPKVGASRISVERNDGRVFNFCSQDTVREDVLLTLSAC
Protocol: Dietary long-chain triglycerides must be hydrolyzed by pancreatic lipase in the duodenum before absorption can occur. […] The capacity of compounds B and C to inhibit rat pancreatic lipase in vitro was investigated. The ability of compounds to inhibit rat pancreatic lipase is determined by analyzing the nmoles of free fatty acid [oleic acid] released from [^14 C]-triolein. Compounds of B and C are added to an emulsion consisting of: 200,000 dpm ^14 C-triolein, 7.5 mg triolein, 0.75 mg sodium taurocholate, 15 mg bovine serum albumin and 0.9 ml 0.2 M tris-HCl - 0.15 M NaCl, pH 8.6, per assay. Water and/or pancreatic lipase is added to make an assay volume of 1.0 ml. The emulsion is incubated for 20 min at 37° C. in a shaking water bath. The reaction is stopped by the addition of isopropanol; H2 SO4 (40:1). The lipids are extracted twice with 3 ml volumes of hexane. The liberated fatty acids are extracted with 2 ml of 0.1 N KOH in 50% methanol. A 1 ml aliquot of the KOH layer is placed in a scintillation vial with 10 ml of 2,5-bis-2- (5-tertiarybutyl benzoxazolyl)thiophene. The radioactivity is determined in a scintillation counter. Data are expressed as nmoles free fatty acid [oleic acid] released.

[4] = test system: cholesterol-7α-hydroxylase; assay: Effect on activity of cholesterol-7α-hydroxylase; settings: in words

Row | SMILES | % increase in Bile Flow, 0-12 hours (bile flow [1]) | % increase in Bile Flow, 13-24 hours (bile flow [1]) | % increase in Bile Flow, overall 24 hour period (bile flow [1]) | % increase of Bile Flow, 0-8 hours (bile flow [2]) | % increase of Bile Flow, 9-24 hours (bile flow [2]) | % decrease of cholesterol, 0-8 hours [3] [%] | % decrease of cholesterol, 9-24 hours [3] [%] | also measured
1 | C[C@H](CCC(=O)O)[C@H]1CC[C@H]2[C@@H]3[C@H](O)C[C@@H]4C[C@H](O)CC[C@]4(C)[C@H]3CC[C@]12C [CDC, chenodeoxycholic acid] | +504% | +9% | +513% | – | – | – | – | –
2 | C[C@]12CC[C@@H](O)C[C@H]1CC[C@@H]1[C@@H]2C[C@H](O)[C@]2(C)[C@@H](C(=O)O)CC[C@@H]12 [Compound A, 3α, 12α-dihydroxy-etiocholane-17β-carboxylicacid] | +286% | +79% | +365% | +18% | -3% | 0 | 79 | Change in Plasma Triglyceride Levels, 4 hr (triglyceride absorption; 4 hr, 1.1 mmoles/kg orally, 15 minutes before corn oil, 6 per group, vs zero time): 50 ± 13 mg%; Change in Plasma Triglyceride Levels, 6 hr (triglyceride absorption; 6 hr, 1.1 mmoles/kg orally, 15 minutes before corn oil, 6 per group, vs zero time): 113 ± 34 mg%; Change in Plasma Triglyceride Levels, 8 hr (triglyceride absorption; 8 hr, 1.1 mmoles/kg orally, 15 minutes before corn oil, 6 per group, vs zero time, *p<0.05): 164 ± 40 mg%; Change in Plasma Triglyceride Levels, 24 hr (triglyceride absorption; 24 hr, 1.1 mmoles/kg orally, 15 minutes before corn oil, 6 per group, vs zero time): 83 ± 11 mg%; Change in Plasma Triglyceride Levels, 2 hr (triglyceride absorption; po, 1100 umol/kg): 37 ± 9 mg%
3 | C[C@H](C(=O)O)[C@H]1CC[C@H]2[C@@H]3CC[C@@H]4C[C@H](O)CC[C@]4(C)[C@H]3C[C@H](O)[C@]12C [Compound B, 3α, 12α-dihydroxy-5β-23,24-bisnorcholanic acid] | +517% | +113% | +630% | +38% | +47% | 0 | 0 | Change in Plasma Triglycerides, 2 hr (triglyceride absorption; Example 5, 2 hr, procedure of Example 4, groups of 4): -3 mg%; Change in Plasma Triglycerides, 4 hr (triglyceride absorption; Example 5, 4 hr, procedure of Example 4, groups of 4): 7 mg%; Change in Plasma Triglycerides, 6 hr (triglyceride absorption; Example 5, 6 hr, procedure of Example 4, groups of 4): 15 mg%; Change in Plasma Triglycerides, 8 hr (triglyceride absorption; Example 5, 8 hr, procedure of Example 4, groups of 4): 54 mg%; Change in Plasma Triglycerides, 24 hr (triglyceride absorption; Example 5, 24 hr, procedure of Example 4, groups of 4): 30 mg%; Ki (rat pancreatic lipase): 14 mM
4 | C[C@H](CC(=O)O)[C@H]1CC[C@H]2[C@@H]3CC[C@@H]4C[C@H](O)CC[C@]4(C)[C@H]3C[C@H](O)[C@]12C [Compound C, 3α, 12α-dihydroxy-5-β-norcholanic acid] | – | – | – | +4% | +30% | 40 | 53 | Ki (rat pancreatic lipase): 1 mM
5 | C[C@H](CCO)[C@H]1CC[C@H]2[C@@H]3CC[C@@H]4C[C@H](O)CC[C@]4(C)[C@H]3C[C@H](O)[C@]12C [Compound D, 3α, 12α, 23-trihydroxy-5β-24-norcholane] | – | – | – | +22% | +14% | 84 | 44 | –
6 | C[C@H](CCC(=O)O)[C@H]1CC[C@H]2[C@@H]3[C@H](O)C[C@@H]4C[C@H](O)CC[C@]4(C)[C@H]3C[C@H](O)[C@]12C [cholic acid, 3α, 7α, 12α-trihydroxy-5β-cholanic acid] | +161% | – | +38% | – | – | – | – | effect on the activity of cholesterol-7α-hydroxylase [4]: adverse effect
7 | C[C@H](CCC(=O)O)[C@H]1CC[C@H]2[C@@H]3CC[C@@H]4C[C@H](O)CC[C@]4(C)[C@H]3C[C@H](O)[C@]12C [deoxycholic acid, 3α, 12α-dihydroxy-5β-cholanic acid] | +335% | – | +219% | – | – | – | – | effect on the activity of cholesterol-7α-hydroxylase [4]: adverse effect
